Assay results from PMC6546875, “Efficacy of Antimicrobial Peptide DP7, Designed by Machine-Learning Method, Against Methicillin-Resistant Staphylococcus aureus” (Frontiers in Microbiology, 2019).
≈ marks a conversion by molar mass, not a printed value. Where “and” joins values, the source holds several entries; their conditions need not be identical. Equal values may be shown once. Where a name gives a salt, the structure may show the parent alone. Read-outs that look alike come from different tables or passages of the source. Marks after values point to notes of the source that are not given here. No end group written: not given here.

Assays:
S. aureus ATCC 25923 [1] = test: microbe, parasite or virus in culture; conditions: Staphylococcus aureus, ATCC25923, 22 h, read-out: MIC for ATCC 25923
S. aureus DP7-R = type: cell-based, Staphylococcus aureus; conditions: change from 1× MIC (ATCC 25923) to n× MIC (DP7-R)
Procedure: Subsequently, the bacterial samples were counted at different time points (0, 1, 2, 4, 6, 8, 18, and 24 h).
For every 48 h, we transferred 2% of each culture to new flasks containing fresh medium with a twofold higher DP7 concentration. […] Aliquots from each population were stored in 20% glycerol at -80°C.

S. aureus = test: In vitro time-killing assay; type: cell-based, Staphylococcus aureus; conditions: Figure 1; S. aureus ATCC 25923 and ATCC 33591
MRSA strain ATCC 33591 = test: Murine model of MRSA blood stream infection; type: in vivo, C57 female mice; conditions: 10 mg/kg i.v., 72 h, vs PBS-treated mice, n = 5
Procedure: A well-characterized murine model of blood stream infection was employed to study the pharmacodynamics profiles of DP7 and compare them with those of vancomycin. Briefly, C57 female mice (body weight 17 g ± 1 g), purchased from Hua Fu Kang Biological Technology Co., Ltd (Beijing, China), were intravenously infected with 1 × 10^8 CFU/100 μL of MRSA strain ATCC 33591 in the logarithmic growth phase (recovery on defibrinated sheep blood agar, Oxoid, United Kingdom). One hour after infection, the mice were treated with various doses of DP7 (0.5, 1, and 2 mg/kg), while the mice in the control group were injected with the same volume of saline. Vancomycin at 10 mg/kg was used as the positive control. Survival and weight changes were observed every 24 h for 1 week. At 24 and 72 h, organs, including the heart, liver, spleen, lung, kidney, and blood were collected and the bacterial load was counted for each murine. At 72 h, the liver, spleen, lungs, and kidneys were fixed with 4% paraformaldehyde for 1 week, sectioned at 4 μm after processing for paraffin embedding, and then stained with hematoxylin and eosin (H&E). All animal procedures were approved and controlled by the Institutional Animal Care and Treatment Committee of Sichuan University and conducted according to the Animal Care and Use Guidelines of Sichuan University.

S. aureus ATCC 25923 [2] = conditions: superscript b; ref Shen et al., 2012; cited from earlier work
Excerpt: Table 1 MIC of various AMPs against S. aureus. | column: MIC for ATCC 25923 (mg/L) || Here, the antimicrobial peptide (AMP) DP7, a short 12 amino acid AMP with broad-spectrum antibacterial activities, was chosen to analyze its potential mechanisms for killing S. aureus.

S. aureus ATCC 33591 [3] = conditions: superscript b; ref Shen et al., 2012; cited from earlier work
S. aureus ATCC 33591 [4] = type: cell-based, Staphylococcus aureus; conditions: ATCC 33591, 22 h
Procedure: (§1) The susceptibility testing methods were performed as previously described ([Wiegand et al., 2008]). […] The minimum bactericidal concentration (MBC) endpoint is the lowest concentration of antibacterial agent that kills > 99.9% of the initial bacterial population where no visible growth of bacteria was observed on nutrient agar plates. […] Subsequently, the bacterial samples were counted at different time points (0, 1, 2, 4, 6, 8, 18, and 24 h).

S. aureus ATCC 25923 [5] = system: S. aureus ATCC 25923
E. coli (ATCC 25922) = type: cell-based, Escherichia coli; conditions: ATCC 25922, 22 h
Procedure: as §1

P. aeruginosa (PAO1) = type: cell-based, Pseudomonas aeruginosa; conditions: PAO1, 22 h
Procedure: as §1

Compound: CC[C@H]1OC(=O)[C@H](C)[C@@H](O[C@H]2C[C@@](C)(OC)[C@@H](O)[C@H](C)O2)[C@H](C)[C@@H](O[C@@H]2O[C@H](C)C[C@H](N(C)C)[C@H]2O)[C@](C)(O)C[C@@H](C)CN(C)[C@H](C)[C@@H](O)[C@]1(C)O [azithromycin]
- MIC (S. aureus ATCC 25923 [1]): 0.125 µg/mL (≈ 0.167 µM)
- MIC for DP7-R as multiple of the MIC for ATCC 25923 (S. aureus DP7-R): 1 × MIC

Compound: CNC(C)C1CCC(N)C(OC2C(N)CC(N)C(OC3OCC(C)(O)C(NC)C3O)C2O)O1 (stereo not shown) [gentamicin]
- MIC (S. aureus ATCC 25923 [1]): 0.0625 µg/mL (≈ 0.131 µM)
- MIC for DP7-R as multiple of the MIC for ATCC 25923 (S. aureus DP7-R): 4 × MIC
- MIC use here (time-killing curves) (S. aureus): 0.125 µg/mL (≈ 0.262 µM)

Compound: COc1c(N2C[C@@H]3CCCN[C@@H]3C2)c(F)cc2c(=O)c(C(=O)O)cn(C3CC3)c12 [moxifloxacin hydrochloride]
- MIC (S. aureus ATCC 25923 [1]): 0.125 µg/mL
- MIC for DP7-R as multiple of the MIC for ATCC 25923 (S. aureus DP7-R): 1 × MIC

Compound: CCn1cc(C(=O)O)c(=O)c2cc(F)c(N3CCNCC3)cc21 [noroxin, norfloxacin]
- MIC (S. aureus ATCC 25923 [1]): 1 µg/mL (≈ 3.13 µM)
- MIC for DP7-R as multiple of the MIC for ATCC 25923 (S. aureus DP7-R): 2 × MIC
- MIC use here (time-killing curves) (S. aureus): 1 µg/mL (≈ 3.13 µM)

Compound: CC1COc2c(N3CCN(C)CC3)c(F)cc3c(=O)c(C(=O)O)cn1c23 (stereo not shown) [ofloxacin]
- MIC (S. aureus ATCC 25923 [1]): 0.25 µg/mL (≈ 0.692 µM)
- MIC for DP7-R as multiple of the MIC for ATCC 25923 (S. aureus DP7-R): 2 × MIC

Compound: CO[C@H]1/C=C/O[C@@]2(C)Oc3c(C)c(O)c4c(O)c(c(/C=N/N5CCN(C)CC5)c(O)c4c3C2=O)NC(=O)/C(C)=C\C=C\[C@H](C)[C@H](O)[C@@H](C)[C@@H](O)[C@@H](C)[C@H](OC(C)=O)[C@@H]1C [rifampicin]
- MIC for DP7-R as multiple of the MIC for ATCC 25923 (S. aureus DP7-R): 1 × MIC

Compound: CN[C@H](CC(C)C)C(=O)N[C@H]1C(=O)N[C@@H](CC(N)=O)C(=O)N[C@H]2C(=O)N[C@H]3C(=O)N[C@H](C(=O)N[C@H](C(=O)O)c4cc(O)cc(O)c4-c4cc3ccc4O)[C@H](O)c3ccc(c(Cl)c3)Oc3cc2cc(c3O[C@@H]2O[C@H](CO)[C@@H](O)[C@H](O)[C@H]2O[C@H]2C[C@](C)(N)[C@H](O)[C@H](C)O2)Oc2ccc(cc2Cl)[C@H]1O [vancomycin]
- bacterial load in heart, liver, spleen, lung, kidney and blood (MRSA strain ATCC 33591): statistically significant reductions
- MIC (S. aureus ATCC 25923 [1]): 0.25 µg/mL (≈ 0.173 µM)
- MIC for DP7-R as multiple of the MIC for ATCC 25923 (S. aureus DP7-R): 1 × MIC
- MIC use here (time-killing curves) (S. aureus): 0.25 µg/mL (≈ 0.173 µM)

Compound: LLGDFFRKSKEKIGKEFKRI VQRIKDFLRNLVPRTES [LL-37, antimicrobial peptide, 37 amino acids]
- MIC for ATCC 25923 (S. aureus ATCC 25923 [2]): 14 mg/L and 14^b mg/L
- MIC for ATCC 33591 (S. aureus ATCC 33591 [3]): 28^b mg/L

Compound: RLARIVVIRVAR [Bac2A]
- MIC for ATCC 33591 (S. aureus ATCC 33591 [4]): 43.7^a mg/L

Compound: VQLRIRVAVIRA [HH2]
- MIC for ATCC 33591 (S. aureus ATCC 33591 [4]): 64^a mg/L
- MIC for ATCC 25923 (S. aureus ATCC 25923 [5]; ATCC 25923, 22 h): 64 mg/L

Compound: VQLRIRVCVIRK [DP8]
- MIC for DP7-R as multiple of the MIC for ATCC 25923 (S. aureus DP7-R): 4 × MIC
- MIC for ATCC 25923 (S. aureus ATCC 25923 [5]; ATCC 25923, 22 h): 16 mg/L

Compound: VQLRIRVCVIRK [DP10]
- MIC for DP7-R as multiple of the MIC for ATCC 25923 (S. aureus DP7-R): 4 × MIC
- MIC for ATCC 25923 (S. aureus ATCC 25923 [5]; logarithmic growth-phase bacteria, 37°C, 22 h, OD600): 64 mg/L

Compound: VQWRIRVAVIRK [DP7]
- MBC (E. coli (ATCC 25922)): 64 µg/mL
- MIC (E. coli (ATCC 25922)): 16 µg/mL
- MBC (S. aureus ATCC 33591 [4]): 64 µg/mL
- MIC for ATCC 33591 (S. aureus ATCC 33591 [4]): 16^a mg/L
- MBC (P. aeruginosa (PAO1)): 64 µg/mL
- MIC (P. aeruginosa (PAO1)): 16 µg/mL
- MBC (S. aureus ATCC 25923 [5]; ATCC 25923, 22 h): 64 µg/mL
- MIC for ATCC 25923 (S. aureus ATCC 25923 [5]; ATCC 25923, 22 h): 16^a mg/L
